# Test results published in patent publication US12404289B2 (Gilead Sciences, Inc., priority 2020, dated 2025).
# System: Respiratory syncytial virus (RSV) strain A2
# Assay: RSV antiviral assay (HEp-2, 96 well)
# Format: cell-based
# Details: human respiratory syncytial virus, HEp-2, 96 h, read-out: EC50 RSV HEP2 96, HEp-2 cells, RSV A2, MOI=4, 4 days, 96 well; Table 3
row,SMILES,EC50
1,"COC(C)(C)CCOC(=O)[C@H](C)NP(=O)(OC[C@H]1O[C@@](C#N)(c2ccc3c(N)ncnn23)[C@H](O)[C@@H]1O)Oc1ccccc1 (stereo partly drawn) [Example 75, (3-methoxy-3-methyl-butyl) (2S)-2-[[[(2R,3S,4R,5R)-5-(4-aminopyrrolo[2,1-f][1,2,4]triazin-7-yl)-5-cyano-3,4-dihydroxy-tetrahydrofuran-2-yl]methoxy-phenoxy-phosphoryl]amino]propanoate]",0.289 µM
2,"COC(C)(C)CCOC(=O)[C@H](C)NP(=O)(OC[C@H]1O[C@@](C#N)(c2ccc3c(N)ncnn23)[C@H](OC(=O)C(C)C)[C@@H]1OC(=O)C(C)C)Oc1ccccc1 (stereo partly drawn) [Example 76, [(2R,3R,4R,5R)-5-(4-aminopyrrolo[2,1-f][1,2,4]triazin-7-yl)-5-cyano-2-[[[[(1S)-2-(3-methoxy-3-methyl-butoxy)-1-methyl-2-oxo-ethyl]amino]-phenoxy-phosphoryl]oxymethyl]-4-(2-methylpropanoyloxy)tetrahydrofuran-3-yl] 2-methylpropanoate]",0.0292 µM
3,"CCC(CC)COC(=O)[C@H](C)NP(=O)(OC[C@H]1O[C@@](C#N)(c2ccc3c(N)ncnn23)[C@H](OC(=O)C(C)C)[C@@H]1OC(=O)C(C)C)Oc1cccc(C(C)(C)C)c1 (stereo partly drawn) [Example 91, [(2R,3R,4R,5R)-5-(4-aminopyrrolo[2,1-f][1,2,4]triazin-7-yl)-2-[[(3-tert-butylphenoxy)-[[(1S)-2-(2-ethylbutoxy)-1-methyl-2-oxo-ethyl]amino]phosphoryl]oxymethyl]-5-cyano-4-(2-methylpropanoyloxy)tetrahydrofuran-3-yl] 2-methylpropanoate]",0.194 µM
4,"CC(C)CC(=O)O[C@H]1[C@@H](OC(=O)CC(C)C)[C@](C#N)(c2ccc3c(N)ncnn23)O[C@@H]1COP(=O)(N[C@@H](C)C(=O)OC1CCC1)Oc1ccccc1 (stereo partly drawn) [Example 109, (2R,3R,4R,5R)-2-(4-aminopyrrolo[2,1-f][1,2,4]triazin-7-yl)-2-cyano-5-((((((S)-1-cyclobutoxy-1-oxopropan-2-yl)amino)(phenoxy)phosphoryl)oxy)methyl)tetrahydrofuran-3,4-diyl bis(3-methylbutanoate)]",0.0435 µM
5,"CCC(=O)O[C@H]1[C@@H](OC(=O)CC)[C@](C#N)(c2ccc3c(N)ncnn23)O[C@@H]1COP(=O)(N[C@@H](C)C(=O)OCC(CC)CC)Oc1ccc(C(C)(C)C)cc1 (stereo partly drawn) [Example 110, (2R,3R,4R,5R)-2-(4-aminopyrrolo[2,1-f][1,2,4]triazin-7-yl)-5-((((4-(tert-butyl)phenoxy)(((S)-1-(2-ethylbutoxy)-1-oxopropan-2-yl)amino)phosphoryl)oxy)methyl)-2-cyanotetrahydrofuran-3,4-diyl Dipropionate]",0.0576 µM
6,"COC(C)(C)COC(=O)[C@H](C)NP(=O)(OC[C@H]1O[C@@](C#N)(c2ccc3c(N)ncnn23)[C@H](O)[C@@H]1O)Oc1ccc(C(C)(C)C)cc1 (stereo partly drawn) [Example 111, 2-methoxy-2-methylpropyl ((((2R,3S,4R,5R)-5-(4-aminopyrrolo[2,1-f][1,2,4]triazin-7-yl)-5-cyano-3,4-dihydroxytetrahydrofuran-2-yl)methoxy)(4-(tert-butyl)phenoxy)phosphoryl)-L-alaninate]",0.846 µM
7,"CCOCCOCCOC(=O)[C@H](C)NP(=O)(OC[C@H]1O[C@@](C#N)(c2ccc3c(N)ncnn23)[C@H](O)[C@@H]1O)Oc1ccc(C(C)(C)C)cc1 (stereo partly drawn) [Example 112, 2-(2-ethoxyethoxy)ethyl ((((2R,3S,4R,5R)-5-(4-aminopyrrolo[2,1-f][1,2,4]triazin-7-yl)-5-cyano-3,4-dihydroxytetrahydrofuran-2-yl)methoxy)(4-(tert-butyl)phenoxy)phosphoryl)-L-alaninate]",0.56 µM
8,"CCC(C)(C)COC(=O)[C@H](C)NP(=O)(OC[C@H]1O[C@@](C#N)(c2ccc3c(N)ncnn23)[C@H](OC(=O)C(C)C)[C@@H]1OC(=O)C(C)C)Oc1ccccc1 (stereo partly drawn) [Example 114, (2R,3R,4R,5R)-2-(4-aminopyrrolo[2,1-f][1,2,4]triazin-7-yl)-2-cyano-5-((((((S)-1-(2,2-dimethylbutoxy)-1-oxopropan-2-yl)amino)(phenoxy)phosphoryl)oxy)methyl)tetrahydrofuran-3,4-diyl bis(2-methylpropanoate)]",0.061 µM
9,"CCOCCOCCOC(=O)[C@H](C)NP(=O)(OC[C@H]1O[C@@](C#N)(c2ccc3c(N)ncnn23)[C@H](OC(=O)C(C)C)[C@@H]1OC(=O)C(C)C)Oc1ccc(C(C)(C)C)cc1 (stereo partly drawn) [Example 115, (2R,3R,4R,5R)-2-(4-aminopyrrolo[2,1-f][1,2,4]triazin-7-yl)-5-((((4-(tert-butyl)phenoxy)(((S)-1-(2-(2-ethoxyethoxy)ethoxy)-1-oxopropan-2-yl)amino)phosphoryl)oxy)methyl)-2-cyanotetrahydrofuran-3,4-diyl bis(2-methylpropanoate)]",0.0626 µM
10,"CCCCCCOC(=O)[C@H](Cc1ccccc1)NP(=O)(OC[C@H]1O[C@@](C#N)(c2ccc3c(N)ncnn23)[C@H](O)[C@@H]1O)Oc1ccc(C(C)(C)C)cc1 (stereo partly drawn) [Example 119, hexyl ((((2R,3S,4R,5R)-5-(4-aminopyrrolo[2,1-f][1,2,4]triazin-7-yl)-5-cyano-3,4-dihydroxytetrahydrofuran-2-yl)methoxy)(4-(tert-butyl)phenoxy)phosphoryl)-L-phenylalaninate]",0.559 µM
11,"CCCCCCOC(=O)[C@H](C)NP(=O)(OC[C@H]1O[C@@](C#N)(c2ccc3c(N)ncnn23)[C@H](O)[C@@H]1O)Oc1ccc(C(C)(C)C)cc1 (stereo partly drawn) [Example 120, hexyl ((((2R,3S,4R,5R)-5-(4-aminopyrrolo[2,1-f][1,2,4]triazin-7-yl)-5-cyano-3,4-dihydroxytetrahydrofuran-2-yl)methoxy)(4-(tert-butyl)phenoxy)phosphoryl)-L-alaninate]",0.0739 µM
12,"CCCCCCOC(=O)[C@H](Cc1ccccc1)NP(=O)(OC[C@H]1O[C@@](C#N)(c2ccc3c(N)ncnn23)[C@H](OC(=O)C(C)C)[C@@H]1OC(=O)C(C)C)Oc1ccc(C(C)(C)C)cc1 (stereo partly drawn) [Example 123, (2R,3R,4R,5R)-2-(4-aminopyrrolo[2,1-f][1,2,4]triazin-7-yl)-5-((((4-(tert-butyl)phenoxy)(((S)-1-(hexyloxy)-1-oxo-3-phenylpropan-2-yl)amino)phosphoryl)oxy)methyl)-2-cyanotetrahydrofuran-3,4-diyl bis(2-methylpropanoate)]",0.0637 µM
13,"CCOC(=O)O[C@H]1[C@@H](OC(=O)OCC)[C@](C#N)(c2ccc3c(N)ncnn23)O[C@@H]1COP(=O)(N[C@@H](C)C(=O)OCC)Oc1ccc(C(C)(C)C)cc1 (stereo partly drawn) [Example 124, ethyl ((((2R,3R,4R,5R)-5-(4-aminopyrrolo[2,1-f][1,2,4]triazin-7-yl)-5-cyano-3,4-bis((ethoxycarbonyl)oxy)tetrahydrofuran-2-yl)methoxy)(4-(tert-butyl)phenoxy)phosphoryl)-L-alaninate]",0.0671 µM
14,"CCCCCCOC(=O)[C@H](C)NP(=O)(OC[C@H]1O[C@@](C#N)(c2ccc3c(N)ncnn23)[C@H](OC(=O)C(C)C)[C@@H]1OC(=O)C(C)C)Oc1ccc(C(C)(C)C)cc1 (stereo partly drawn) [Example 125, (2R,3R,4R,5R)-2-(4-aminopyrrolo[2,1-f][1,2,4]triazin-7-yl)-5-((((4-(tert-butyl)phenoxy)(((S)-1-(hexyloxy)-1-oxopropan-2-yl)amino)phosphoryl)oxy)methyl)-2-cyanotetrahydrofuran-3,4-diyl bis(2-methylpropanoate)]",0.0211 µM
15,"CCOC(=O)O[C@H]1[C@@H](OC(=O)OCC)[C@](C#N)(c2ccc3c(N)ncnn23)O[C@@H]1CO[P@@](=O)(N[C@@H](C)C(=O)OCC(CC)CC)Oc1ccccc1 [Example 127, 2-ethylbutyl ((S)-(((2R,3R,4R,5R)-5-(4-aminopyrrolo[2,1-f][1,2,4]triazin-7-yl)-5-cyano-3,4-bis((ethoxycarbonyl)oxy)tetrahydrofuran-2-yl)methoxy)(phenoxy)phosphoryl)-L-alaninate]",0.0341 µM
16,"COC(C)(C)COC(=O)[C@H](C)N[P@](=O)(OC[C@H]1O[C@@](C#N)(c2ccc3c(N)ncnn23)[C@H](OC(=O)CC(C)C)[C@@H]1OC(=O)CC(C)C)Oc1ccccc1 [Example 168, (2R,3R,4R,5R)-2-(4-aminopyrrolo[2,1-f][1,2,4]triazin-7-yl)-2-cyano-5-((((S)—(((S)-1-(2-methoxy-2-methylpropoxy)-1-oxopropan-2-yl)amino)(phenoxy)phosphoryl)oxy)methyl)tetrahydrofuran-3,4-diyl bis(3-methylbutanoate)]",0.111 µM
17,"CCC(=O)O[C@H]1[C@@H](OC(=O)CC)[C@](C#N)(c2ccc3c(N)ncnn23)O[C@@H]1CO[P@@](=O)(N[C@@H](C)C(=O)OCC(C)(C)OC)Oc1ccccc1 [Example 169, (2R,3R,4R,5R)-2-(4-aminopyrrolo[2,1-f][1,2,4]triazin-7-yl)-2-cyano-5-((((S)—(((S)-1-(2-methoxy-2-methylpropoxy)-1-oxopropan-2-yl)amino)(phenoxy)phosphoryl)oxy)methyl)tetrahydrofuran-3,4-diyl Dipropionate]",0.0629 µM
18,"CCC(C)(C)COC(=O)[C@H](C)NP(=O)(OC[C@H]1O[C@@](C#N)(c2ccc3c(N)ncnn23)[C@H](O)[C@@H]1O)Oc1ccccc1 (stereo partly drawn) [Intermediate D9, 2,2-dimethylbutyl ((((2R,3S,4R,5R)-5-(4-aminopyrrolo[2,1-f][1,2,4]triazin-7-yl)-5-cyano-3,4-dihydroxytetrahydrofuran-2-yl)methoxy)(phenoxy)phosphoryl)-L-alaninate]",0.0654 µM
19,"C[C@H](NP(=O)(OC[C@H]1O[C@@](C#N)(c2ccc3c(N)ncnn23)[C@H](O)[C@@H]1O)Oc1ccccc1)C(=O)OCCC(C)(C)C (stereo partly drawn) [Intermediate P8a, 3,3-dimethylbutyl ((((2R,3S,4R,5R)-5-(4-aminopyrrolo[2,1-f][1,2,4]triazin-7-yl)-5-cyano-3,4-dihydroxytetrahydrofuran-2-yl)methoxy)(phenoxy)phosphoryl)-L-alaninate]",0.0203 µM
20,"CCC(C)(C)CCOC(=O)[C@H](C)NP(=O)(OC[C@H]1O[C@@](C#N)(c2ccc3c(N)ncnn23)[C@H](O)[C@@H]1O)Oc1ccccc1 (stereo partly drawn) [Intermediate S4, 3,3-dimethylpentyl ((((2R,3S,4R,5R)-5-(4-aminopyrrolo[2,1-f][1,2,4]triazin-7-yl)-5-cyano-3,4-dihydroxytetrahydrofuran-2-yl)methoxy)(phenoxy)phosphoryl)-L-alaninate]",0.0149 µM
